What is called pIC50 is the IC50 on a negative log10 scale, so that one unit is a factor of ten.

Each structure is given as a SMILES string. pIC50: −log10 of the molar value.

Sequence of GMPPNP-loaded KRAS G12C (P01116 1-188 isoform P01116-2 G12C): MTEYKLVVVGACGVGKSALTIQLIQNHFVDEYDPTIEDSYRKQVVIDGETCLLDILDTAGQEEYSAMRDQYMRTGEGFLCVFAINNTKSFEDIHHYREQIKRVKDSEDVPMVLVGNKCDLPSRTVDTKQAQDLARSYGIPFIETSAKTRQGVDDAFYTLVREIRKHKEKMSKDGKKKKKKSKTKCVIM

The test has as its target GMPPNP-loaded KRAS G12C (Homo sapiens, UniProt P01116, G12C). The experiment in a line: KRAS G12C RAF Disruption Assay (HTRF). It counts as biochemical. To be noted: recombinant GMPPNP-loaded KRAS G12C (5 nM), 20 min with compound; GST-RAF1 RBD (9 nM); HTRF signal; read-out: KRASG12C RAF Disruption Assay (IC50). The method, boiled down: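 GMPPNP-loaded KRAS G12C (5 nM) was preincubated with compound for 20 min at room temperature in Tris pH 7.5 buffer with NaCl, MgCl2, DTT and BSA. GST-RAF1 RBD (9 nM) was added for 20 min, then SA-Tb (0.25 nM) for 3 h. IC50 was fitted from the HTRF 520/495 ratio.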
With `CN1CCC[C@H]1COc1nc(N2CCN(C(=O)/C(F)=C/c3nccs3)[C@@H](CC#N)C2)c2cnc(-c3cccc4ccc(F)cc34)c(F)c2n1` [Example 37, 2-((S)-1-((Z)-2-fluoro-3-(thiazol-2-yl)acryloyl)-4-(8-fluoro-7-(7-fluoronaphthalen-1-yl)-2-(((S)-1-methylpyrrolidin-2-yl)methoxy)pyrido[4,3-d]pyrimidin-4-yl)piperazin-2-yl)acetonitrile], the pIC50 was 6.89.
`N#CC[C@H]1CN(c2nc(OC[C@@]34CCCN3C[C@H](F)C4)nc3c(F)c(-c4ccccc4C(F)(F)F)ncc23)CCN1C(=O)/C(F)=C/c1ccccn1` [Example 33, 2-((S)-4-(8-fluoro-2-(((2R, 7aS)-2-fluorotetrahydro-1H-pyrrolizin-7a(5H)-yl)methoxy)-7-(2-(trifluoromethyl)phenyl)pyrido[4,3-d]pyrimidin-4-yl)-1-((Z)-2-fluoro-3-(pyridin-2-yl)acryloyl)piperazin-2-yl)acetonitrile]: the pIC50 was 7.12.
`Cn1ncc2cccc(-c3ncc4c(N5CCN(C(=O)/C(F)=C/c6ccccn6)[C@@H](CC#N)C5)nc(OC[C@@]56CCCN5C[C@H](F)C6)nc4c3F)c21` [Example 51, 2-((S)-4-(8-fluoro-2-(((2R, 7aS)-2-fluorotetrahydro-1H-pyrrolizin-7a(5H)-yl)methoxy)-7-(1-methyl-1H-indazol-7-yl)pyrido[4,3-d]pyrimidin-4-yl)-1-((Z)-2-fluoro-3-(pyridin-2-yl)acryloyl)piperazin-2-yl)acetonitrile]: the pIC50 is 6.44.
Turning to `C#Cc1cccc2cccc(-c3ncc4c(N(C)C5CCN(C(=O)/C(F)=C/c6nccs6)C5C)nc(OC[C@@]56CCCN5C[C@H](F)C6)nc4c3F)c12` (single isomer, unassigned) [Example 73 cis isomer 1], the pIC50 was 6.96.
In the case of `CCc1cccc2cccc(-c3ncc4c(N5CCN(C(=O)/C(F)=C/c6nccs6)[C@@H](CC#N)C5)nc(OC[C@@H]5CCCN5C)nc4c3F)c12` [Example 24, 2-((S)-4-(7-(8-ethylnaphthalen-1-yl)-8-fluoro-2-(((S)-1-methylpyrrolidin-2-yl)methoxy)pyrido[4,3-d]pyrimidin-4-yl)-1-((Z)-2-fluoro-3-(thiazol-2-yl)acryloyl)piperazin-2-yl)acetonitrile] it was 6.96; in that of `N#CC[C@H]1CN(c2nc(OC[C@@]34CCCN3C[C@H](F)C4)nc3c(F)c(-c4cc(Cl)ccc4C(F)(F)F)ncc23)CCN1C(=O)/C(F)=C/c1nccs1` [Example 46, 2-((S)-1-((Z)-2-fluoro-3-(thiazol-2-yl)acryloyl)-4-(8-fluoro-7-(5-chloro-2-(trifluoromethyl)phenyl)-2-(((2R, 7aS)-2-fluorotetrahydro-1H-pyrrolizin-7a(5H)-yl)methoxy)pyrido[4,3-d]pyrimidin-4-yl)piperazin-2-yl)acetonitrile], 6.41.
To `C#Cc1c(F)ccc2cc(O)cc(-c3ncc4c(N5C[C@H]6CC[C@@H](C5)N6C(=O)/C(F)=C/c5cccc(OC)n5)nc(OC[C@@]56CCCN5C[C@H](F)C6)nc4c3F)c12` [Compound 17, (Z)-1-((1R, 5S)-3-(7-(8-ethynyl-7-fluoro-3-hydroxynaphthalen-1-yl)-8-fluoro-2-(((2R, 7aS)-2-fluorotetrahydro-1H-pyrrolizin-7a(5H)-yl)methoxy)pyrido[4,3-d]pyrimidin-4-yl)-3,8-diazabicyclo[3.2.1]octan-8-yl)-2-fluoro-3-(6-methoxypyridin-2-yl)prop-2-en-1-one] belongs 5.59; to `N#CC[C@H]1CN(c2nc(OC[C@@]34CCCN3C[C@H](F)C4)nc3c(F)c(-c4ccccc4C4CCC4)ncc23)CCN1C(=O)/C(F)=C/c1nccs1` [Compound 82, 2-((2S)-4-(7-(2-cyclobutylphenyl)-8-fluoro-2-(((2R, 7aS)-2-fluorotetrahydro-1H-pyrrolizin-7a(5H)-yl)methoxy)pyrido[4,3-d]pyrimidin-4-yl)-1-((Z)-2-fluoro-3-(thiazol-2-yl)acryloyl)piperazin-2-yl)acetonitrile], 7.21.
In the case of `C#Cc1cccc2c(F)ccc(-c3ncc4c(N5CCN(C(=O)/C(F)=C/c6ncccn6)CC5)nc(OC[C@@]56CCCN5C[C@H](F)C6)nc4c3F)c12` [Compound 88, (Z)-1-(4-(7-(8-ethynyl-4-fluoronaphthalen-1-yl)-8-fluoro-2-(((2R, 7aS)-2-fluorotetrahydro-1H-pyrrolizin-7a(5H)-yl)methoxy)pyrido[4,3-d]pyrimidin-4-yl)piperazin-1-yl)-2-fluoro-3-(pyrimidin-2-yl)prop-2-en-1-one] it was 6.00; in that of `C#Cc1c(F)ccc2cc(O)cc(-c3ncc4c(N5CCN(C(=O)/C(F)=C/c6ccccn6)CC5)nc(OC[C@@H]5CCCN5CCCN=[N+]=[N-])nc4c3F)c12` [Compound 111, (S,Z)-1-(4-(2-((1-(3-azidopropyl)pyrrolidin-2-yl)methoxy)-7-(8-ethynyl-7-fluoro-3-hydroxynaphthalen-1-yl)-8-fluoropyrido[4,3-d]pyrimidin-4-yl)piperazin-1-yl)-2-fluoro-3-(pyridin-2-yl)prop-2-en-1-one], 7.96; in that of `C#Cc1c(F)ccc2cc(O)cc(-c3ncc4c(N5C[C@@]6(NC(=O)/C(F)=C/c7ccccn7)CC[C@@H]5C6)nc(OC[C@@]56CCCN5C[C@H](F)C6)nc4c3F)c12` [Compound 13, (Z)—N-((1R, 4R)-2-(7-(8-ethynyl-7-fluoro-3-hydroxynaphthalen-1-yl)-8-fluoro-2-(((2R, 7aS)-2-fluorotetrahydro-1H-pyrrolizin-7a(5H)-yl)methoxy)pyrido[4,3-d]pyrimidin-4-yl)-2-azabicyclo[2.2.1]heptan-4-yl)-2-fluoro-3-(pyridin-2-yl)acrylamide], 7.42.
As to `C#Cc1c(F)c(F)cc2cccc(-c3ncc4c(N5CCN(C(=O)/C(F)=C/c6ccccn6)CC5)nc(OC[C@@]56CCCN5C[C@H](F)C6)nc4c3F)c12` [Compound 99, (Z)-1-(4-(7-(8-ethynyl-6,7-difluoronaphthalen-1-yl)-8-fluoro-2-(((2R, 7aS)-2-fluorotetrahydro-IH-pyrrolizin-7a(5H)-yl)methoxy)pyrido[4,3-d]pyrimidin-4-yl)piperazin-1-yl)-2-fluoro-3-(pyridin-2-yl)prop-2-en-1-one], the negative-log IC50 (pIC50) was 7.15.
As for `C#Cc1c(F)ccc2cc(O)cc(-c3ncc4c(N5CCN(C(=O)/C(F)=C/c6ncco6)CC5)nc(OC[C@@]56CCCN5C[C@H](F)C6)nc4c3F)c12` [Example 54, (Z)-1-(4-(7-(8-ethynyl-7-fluoro-3-hydroxynaphthalen-1-yl)-8-fluoro-2-(((2R, 7aS)-2-fluorotetrahydro-1H-pyrrolizin-7a(5H)-yl)methoxy)pyrido[4,3-d]pyrimidin-4-yl)piperazin-1-yl)-2-fluoro-3-(oxazol-2-yl)prop-2-en-1-one], the pIC50 is 8.30.
In the case of `N#CC[C@H]1CN(c2nc(OC[C@@]34CCCN3C[C@H](F)C4)nc3c(F)c(N4CCOc5cccc(F)c54)ncc23)CCN1C(=O)/C(F)=C/c1nccs1` [Example 61, 2-((S)-1-((Z)-2-fluoro-3-(thiazol-2-yl)acryloyl)-4-(8-fluoro-7-(5-fluoro-2,3-dihydro-4H-benzo[b][1,4]oxazin-4-yl)-2-(((2R, 7aS)-2-fluorotetrahydro-1H-pyrrolizin-7a(5H)-yl)methoxy)pyrido[4,3-d]pyrimidin-4-yl)piperazin-2-yl)acetonitrile] it was 6.52.
Turning to `C#Cc1c(F)ccc2cc(O)cc(-c3ncc4c(N5C[C@H]6CC[C@@H](C5)N6C(=O)/C(F)=C/c5nccn5C)nc(OC[C@@]56CCCN5C[C@H](F)C6)nc4c3F)c12` [Compound 5, (Z)-1-((1R, 5S)-3-(7-(8-ethynyl-7-fluoro-3-hydroxynaphthalen-1-yl)-8-fluoro-2-(((2R, 7aS)-2-fluorotetrahydro-1H-pyrrolizin-7a(5H)-yl)methoxy)pyrido[4,3-d]pyrimidin-4-yl)-3,8-diazabicyclo[3.2.1]octan-8-yl)-2-fluoro-3-(1-methyl-1H-imidazol-2-yl)prop-2-en-1-one], the negative logarithm of the IC50 (pIC50) is 7.10.
With `N#CC[C@H]1CN(c2nc(OC[C@@]34CCCN3C[C@H](F)C4)nc3c(F)c(-c4ccccc4C4CC4)ncc23)CCN1C(=O)/C(F)=C/c1nccs1` [Compound 80, 2-((2S)-4-(7-(2-cyclopropylphenyl)-8-fluoro-2-(((2R, 7aS)-2-fluorotetrahydro-1H-pyrrolizin-7a(5H)-yl)methoxy)pyrido[4,3-d]pyrimidin-4-yl)-1-((Z)-2-fluoro-3-(thiazol-2-yl)acryloyl)piperazin-2-yl)acetonitrile], the pIC50 is 7.52.
In the case of `C#Cc1c(F)ccc2cc(O)cc(-c3ncc4c(N5C[C@H]6CC[C@@H](C5)N6C(=O)/C(F)=C/c5nccs5)nc(OC[C@@]56CCCN5C[C@H](F)C6)nc4c3F)c12` [Compound 1, (Z)-1-((1R, 5S)-3-(7-(8-ethynyl-7-fluoro-3-hydroxynaphthalen-1-yl)-8-fluoro-2-(((2R, 7aS)-2-fluorotetrahydro-1H-pyrrolizin-7a(5H)-yl)methoxy)pyrido[4,3-d]pyrimidin-4-yl)-3,8-diazabicyclo[3.2.1]octan-8-yl)-2-fluoro-3-(thiazol-2-yl)prop-2-en-1-one] it was 7.57.
As to `Cc1ccc2[nH]ncc2c1-c1ncc2c(N3CCN(C(=O)/C(F)=C/c4ccccn4)CC3)nc(OC[C@@]34CCCN3C[C@H](F)C4)nc2c1F` [Example 30, (Z)-2-fluoro-1-(4-(8-fluoro-2-(((2R, 7aS)-2-fluorotetrahydro-1H-pyrrolizin-7a(5H)-yl)methoxy)-7-(5-methyl-1H-indazol-4-yl)pyrido[4,3-d]pyrimidin-4-yl)piperazin-1-yl)-3-(pyridin-2-yl)prop-2-en-1-one], the negative-log IC50 (pIC50) was 6.33.

Source of the values: US20240067662A1, “KRAS INHIBITORS” (Bristol-Myers Squibb Company, priority 2022, published 2024).
